Measured values as given in patent US5759573A, “Cyclodextrin liposomes encapsulating pharmacologic compounds and methods for their use” (DepoTech Corporation, priority 1995, dated 1998).

What was measured:
in vivo [1] = details: mouse, ip, 10 mg/kg
Procedure: (§4) The in vivo studies were done on male BDF1 mice weighing 18-25 g. […] The Emit^R assay is a homogeneous enzyme immunoassay technique based on the competition between drug present in the sample and drug labeled with the enzyme glucose-6-phosphate dehydrogenase for antibody binding sites. The limit of sensitivity was 0.02 μM.
(§5) Five μl of the peritoneal fluid samples were collected into a glass capillary pipette and diluted into 140 μl of 0.9% NaCl solution. […] Fifty μl of methanol was added to the pellet and vortexed to break multivesicular particles. The peritoneal cavities were then washed out thoroughly with 2-3 ml of 0.9% NaCl solution thrice. All samples were kept frozen at -20° C. until assayed by HPLC. Extraction of the samples was not necessary, no internal standard was used and there were no interfering peaks. RSTRIP computer program was used to analyze pharmacokinetic data. The area under the curve was determined by linear trapezoidal rule up to the last measured concentration and extrapolated to infinity.

[2] = Intraperitoneal pharmacokinetics in BDF1 mice; details: mouse, 10 mg/kg ip
Procedure: as §4, §5

[3] = Toxicity and therapeutic index of single intraperitoneal dose; design: species or system mouse (BDF1); details: in vivo; mouse, single ip dose, probit transformation
Procedure: (§1) There were five mice per group and fifteen mice were used as untreated controls (given 1 ml of 0.9% NaCl solution). The result was expressed as "increased life span".
LD50 was calculated after probit transformation by PHARM/PCS program (MicroComputer Specialists, Philadelphia, Pa.). […] The therapeutic index (TI) for single IP dosage was calculated by the equation: […]

in vivo [4] = details: rat
Procedure: Rats were anesthetized with ketamine HCl (90 mg/kg and acetopromazine maleate (2.2 mg/kg, injected intramuscularly) and mounted in a conventional stereotaxic frame. Using a No. 15 blade, a midline cutaneous incision approximately 1 cm in length was made from the occipital crest to just behind the ears. The muscle ligament along the occipital crest at the skull was detached with a scalpel for 4 mm on either side of the midline. Using both the sharp and blunt ends of a periosteal elevator, the muscle from the occipital bone was freed down to the atlanto-occipital membrane. A retractor was placed in the incision to draw the muscle aside and obtain a clear view of the atlanto-occipital membrane. […] The needle was withdrawn, the skin was sutured with 3-0 silk, and the animal was given 10 ml lactated Ringer'solution subcutaneously for hydration.
At appropriate time points after injection, the atlanto-occipital membrane was again exposed under anesthesia and a sample of cerebrospinal fluid ranging from 30 to 60 μl was obtained through a 19-gauge needle. […] The cerebrospinal fluid samples were then kept frozen at -20° C. until analyzed using a high-performanceliquid chromatography (HPLC) system as described below.
After cerebrospinal fluid sampling, the animals were sacrificed with an overdose of ketamine (90 mg/kg) and acetopromazine (20 mg/kg), injected intraperitoneally. Blood samples were obtained via cardiac puncture and thorough exsanguination was performed. […] The calvarium was then exposed and carefully removed with a bone rongeur. The entire content of the cranial compartment was collected by scooping out the exposed brain with a spatula and washing the cranial vault thoroughly with distilled water. The spinal compartment content was then collected separately; the spinal cord was extruded forward into the cranial vault by pushing distilled water rapidly through a 19-gauge needle inserted into the lower lumbar spinal canal at a point 2.5 cm rostral to the origin of the tail. […] The cranial compartment samples were analyzed separately from the spinal canal samples. Both tissue samples were homogenized with water using a Polytron homogenizer.
The homogenized samples of brain or spinal cord were analyzed with HPLC after extraction as described by Alkayal et al. Ther. Drug Monit. 12:191 (1990). Briefly, in a glass centrifuge tube, a 500 μl aliquot of homogenate, 100 μl of theophylline aqueous solution (internal standard, 2.0 mg/ml), 250 μl trichloroacetic acid solution (10% in water), and 250 μl glacial acetic acid were placed and mixed. […] Ethyl acetate organic phase was decanted and evaporated under nitrogen at 60° C. The extracted residue was dissolved in 200 μl of mobile phase and 100 μl of the resulting solution was injected into the HPLC.
The RSTRIP computer program (MicroMath Scientific Software, Salt Lake City, Utah) was used to perform the pharmacokinetics analysis.

in vivo [5] = details: mouse, sc, 10 mg/kg
Procedure: (§6) Subcutaneous (sc) pharmacokinetic studies were done using male BDF1 mice, weighing 20-25 grams. […] At each time point, 3 animals were sacrificed.
(§7) A full thickness of the abdominal wall tissue, including the entire skin and the underlying peritoneal membrane, was then excised from the costal margin to the inguinal area and from one flank to the other. The entire tissue specimen was homogenized after addition of at least 20 ml of distilled water with a Polytron homogenizer. The homogenate was sonicated for 60 seconds at a maximum setting with a Biosonic IV probe sonicator and filtered through a YMT ultrafiltration membrane (Amicon Corp, product #4104). All the samples were kept at -20° C. until assayed by HPLC. The RSTRIP program was used to perform the curve fitting. AUC was determined by linear trapezoidal rule up to the last measured concentration and extrapolated to infinity.

L1210 leukemia [6] = assay: Efficacy of single subcutaneous dose in murine L1210 model (increased life span); format: in vivo, mouse (BDF1); details: L1210, single sc dose on Day 1, increased life span
Description: BDF1 and DBA/2J mice were from Simonsen Laboratories, Gilroy, Calif. The L1210 leukemia was maintained by serial intraperitoneal passage in DBA/2J female mice.
(§2) Five animals were in each group except for the control (given 0.9% NaCl alone), where 10 animals were used. […] Median survival time was used to calculate the "increased life span" (ILS) according to the formula: […]
where T is the median survival time of treated groups and C is the median survival time for control groups.
(§3) The LD50 was calculated after probit transformation.

[7] = Subcutaneous pharmacokinetics in BDF1 mice; details: mouse, 10 mg/kg sc
Procedure: as §6, §7

in vivo [8] = details: mouse, sc
Procedure: as §2, §3

L1210 leukemia [9] = assay: Efficacy of single intraperitoneal dose in murine L1210 model (increased life span); format: in vivo, mouse (BDF1); details: L1210, single ip dose on Day 1, increased life span
Procedure: as §1

[10] = estimated from studies in vitro; read-out: minimal cytotoxic concentration; cited from earlier work
[11] = cited from earlier work

CN(Cc1cnc2nc(N)nc(N)c2n1)c1ccc(C(=O)N[C@@H](CCC(=O)O)C(=O)O)cc1 [unencapsulated methotrexate, methotrexate]
AUC(0-inf) (in vivo [1]; peritoneal fluid): 233 µM·h | Cmax (in vivo [1]; peritoneal fluid): 430 ± 13 µM | half-life (in vivo [1]; peritoneal fluid): 32.4 min | AUC(0-inf) (in vivo [1]; plasma): 11.2 µM·h | half-life (in vivo [1]; plasma): 54 min | Peritoneal Amount t1/2 ([2]; total amount for MVL-CD-MTX): 27 min | Peritoneal Conc. t1/2 ([2]; unencapsulated drug or complex, or free methotrexate after MVL-CD-MTX): 32.4 min | LD50 [3]: 2760 mg/kg | Amount t1/2 (total amount of drug within CNS) (in vivo [4]): 0.03 days | concentration at 4 h (in vivo [4]): 110 ± 20 nM | half-life (in vivo [4]; Amount t1/2 (total amount of drug within CNS)): 43.2 min | half-life (in vivo [4]; Conc. t1/2 α (initial half-life, CSF)): 34.6 min | half-life (in vivo [4]; Conc. t1/2 β (terminal half-life, CSF)): 432 min | AUC(0-inf) (in vivo [5]; plasma): 17.3 µM·h | Cmax (in vivo [5]; plasma): 17.4 ± 5.2 µM | Tmax (in vivo [5]; plasma): 15 min | half-life (in vivo [5]; plasma): 31.8 min | half-life (in vivo [5]; skin at injection site): 9.6 min | maximum efficacy (ILS max) (L1210 leukemia [6]): 183% | Amount t1/2 (total amount of methotrexate in skin) ([7]; injection site): 9.6 min | Conc. t1/2 (plasma half-life) ([7]; plasma): 31.8 min | LD50 (in vivo [8]): 2650 mg/kg | maximum efficacy (ILS max) (L1210 leukemia [9]): 100% | MCC [10]: 500 nM | absorption after im or sc administration (in words) ([11]; im or sc): much more predictable and complete | serum concentrations after im or sc versus oral dose (in words) ([11]; im or sc): higher serum concentrations than after an oral dose | absorption rate after oral administration (in words) ([11]; patients, oral): highly variable among patients and appears to be saturable
